“And” between values parts separate entries of the source, which are not always exact repeats. Equal values may be shown once.
Legend:
[1] = Fold resistance (L100I/ WT) (as per ref 10 in the article)
[2] = Fold resistance (L100I/ WT) was determined
[3] = biological target: Human immunodeficiency virus type 1 reverse transcriptase (Human immunodeficiency virus 1, UniProt Q72547, L100I); experiment: Effective concentration required against L100I mutant HIV-1 reverse transcriptase
[4] = biological target: Human immunodeficiency virus type 1 reverse transcriptase (Human immunodeficiency virus 1, UniProt Q72547); experiment: Effective concentration required against wild type HIV-1 reverse transcriptase
[5] = Fold resistance (L100I/ WT) (as per ref 8 in the article)
[6] = Fold resistance (L100I/ WT) (as per ref 6 in the article)
[7] = Fold resistance (L100I/ WT) (as per ref 7 in the article)
[8] = Fold resistance (L100I/ WT) (as per ref 12 in the article)

| SMILES | FR [1] | FR [2] | EC50 [3] | EC50 [4] | FR [5] | FR [6] | FR [7] | FR [8] |
| --- | --- | --- | --- | --- | --- | --- | --- | --- |
| O=C1Nc2ccc(Cl)cc2[C@@](C#CC2CC2)(C(F)(F)F)O1 | 5.9 and 8.6 | – | – | – | – | – | – | – |
| CC(C)=CCOc1cc(NC(=S)c2ccoc2C)ccc1Cl [UC 781] | – | 2.7 | 24 nM | 9 nM | – | – | – | – |
| CC(C)=CCN1Cc2cc(Cl)cc3[nH]c(=S)n(c23)C[C@@H]1C | – | 93.3 | 5600 nM | 60 nM | – | – | – | – |
| Cc1ccnc2c1NC(=O)c1cccnc1N2C1CC1 | – | – | – | – | 12.7 | 0.6 | 2.1 | 5 |
| CCOCn1c(Cc2ccccc2)c(C(C)C)c(=O)[nH]c1=O [EMIVIRINE] | – | 10 | 20 nM | 2 nM | – | – | – | – |
